From PMC7313537 (PLoS ONE, 2020)

Columns and labels:
Assay in all cases: Broader kinase panel (PerkinElmer)
Assay type in all cases: biochemical
CAMK2 = conditions: 100 nM
Description: (§1) […]. […] […].

AurB = target: T1, AurB (Homo sapiens, UniProt Q96GD4); conditions: 100 nM; read-out: Average Percent Inhibition
T1 construct: purchased In-house HTRF panel (56 kinases) and PerkinElmer (161-kinase panel)
Description: as §1

DYRK1B = target: T2, DYRK1B (Homo sapiens, UniProt Q9Y463); conditions: 100 nM; read-out: Average Percent Inhibition
T2 construct: purchased In-house HTRF panel (56 kinases) and PerkinElmer (161-kinase panel)
T2 sequence (Q9Y463 whole entry): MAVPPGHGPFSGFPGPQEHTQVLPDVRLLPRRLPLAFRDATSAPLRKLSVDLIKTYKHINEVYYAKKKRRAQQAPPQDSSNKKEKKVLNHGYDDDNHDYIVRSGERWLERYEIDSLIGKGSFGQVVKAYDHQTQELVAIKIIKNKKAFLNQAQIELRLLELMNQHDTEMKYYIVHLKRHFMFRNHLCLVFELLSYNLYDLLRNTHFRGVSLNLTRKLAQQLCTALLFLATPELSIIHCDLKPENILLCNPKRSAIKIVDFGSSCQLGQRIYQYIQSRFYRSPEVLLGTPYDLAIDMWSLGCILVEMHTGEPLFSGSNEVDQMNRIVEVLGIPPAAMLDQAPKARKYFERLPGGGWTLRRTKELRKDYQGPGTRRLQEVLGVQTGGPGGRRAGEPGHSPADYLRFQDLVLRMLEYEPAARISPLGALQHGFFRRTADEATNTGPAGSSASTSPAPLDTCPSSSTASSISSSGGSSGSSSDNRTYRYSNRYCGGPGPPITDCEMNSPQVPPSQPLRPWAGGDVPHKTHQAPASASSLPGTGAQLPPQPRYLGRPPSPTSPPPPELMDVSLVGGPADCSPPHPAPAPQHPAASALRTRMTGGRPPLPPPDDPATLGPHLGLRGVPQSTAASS
Description: as §1

EPHA3 = target: T3, EPHA3 (Homo sapiens, UniProt P29320); conditions: 100 nM; read-out: Average Percent Inhibition
T3 construct: purchased In-house HTRF panel (56 kinases) and PerkinElmer (161-kinase panel)
Description: as §1

FES = target: T4, FES (Homo sapiens, UniProt P07332); conditions: 100 nM; read-out: Average Percent Inhibition
T4 construct: purchased In-house HTRF panel (56 kinases) and PerkinElmer (161-kinase panel)
Description: as §1

PAK2 = target: T5, PAK2 (Homo sapiens, UniProt Q13177); conditions: 100 nM; read-out: Average Percent Inhibition
T5 construct: purchased In-house HTRF panel (56 kinases) and PerkinElmer (161-kinase panel)
Description: as §1

PKC-delta = target: T6, PKC-delta (Homo sapiens, UniProt Q05655); conditions: 100 nM; read-out: Average Percent Inhibition
T6 construct: purchased In-house HTRF panel (56 kinases) and PerkinElmer (161-kinase panel)
Description: as §1

KIT = target: T7, KIT (Homo sapiens, UniProt P10721); conditions: 100 nM; read-out: Average Percent Inhibition
T7 construct: purchased In-house HTRF panel (56 kinases) and PerkinElmer (161-kinase panel)
Description: as §1

MARK2 = target: T8, MARK2 (Homo sapiens, UniProt Q7KZI7); conditions: 100 nM; read-out: Average Percent Inhibition
T8 construct: purchased In-house HTRF panel (56 kinases) and PerkinElmer (161-kinase panel)
Description: as §1

PKCb2 = target: T9, PKCb2 (Homo sapiens, UniProt P05771); conditions: 100 nM; read-out: Average Percent Inhibition
T9 construct: purchased In-house HTRF panel (56 kinases) and PerkinElmer (161-kinase panel)
Description: as §1

KIT[T670I] = target: T10, KIT[T670I] (Homo sapiens, UniProt P10721, T670I); conditions: 100 nM; read-out: Average Percent Inhibition
T10 construct: purchased In-house HTRF panel (56 kinases) and PerkinElmer (161-kinase panel)
Description: as §1

PRKX = target: T11, PRKX (Homo sapiens, UniProt P51817); conditions: 100 nM; read-out: Average Percent Inhibition
T11 construct: purchased In-house HTRF panel (56 kinases) and PerkinElmer (161-kinase panel)
Description: as §1

MARK4 = target: T12, MARK4 (Homo sapiens, UniProt Q96L34); conditions: 100 nM; read-out: Average Percent Inhibition
T12 construct: purchased In-house HTRF panel (56 kinases) and PerkinElmer (161-kinase panel)
T12 sequence (Q96L34 whole entry): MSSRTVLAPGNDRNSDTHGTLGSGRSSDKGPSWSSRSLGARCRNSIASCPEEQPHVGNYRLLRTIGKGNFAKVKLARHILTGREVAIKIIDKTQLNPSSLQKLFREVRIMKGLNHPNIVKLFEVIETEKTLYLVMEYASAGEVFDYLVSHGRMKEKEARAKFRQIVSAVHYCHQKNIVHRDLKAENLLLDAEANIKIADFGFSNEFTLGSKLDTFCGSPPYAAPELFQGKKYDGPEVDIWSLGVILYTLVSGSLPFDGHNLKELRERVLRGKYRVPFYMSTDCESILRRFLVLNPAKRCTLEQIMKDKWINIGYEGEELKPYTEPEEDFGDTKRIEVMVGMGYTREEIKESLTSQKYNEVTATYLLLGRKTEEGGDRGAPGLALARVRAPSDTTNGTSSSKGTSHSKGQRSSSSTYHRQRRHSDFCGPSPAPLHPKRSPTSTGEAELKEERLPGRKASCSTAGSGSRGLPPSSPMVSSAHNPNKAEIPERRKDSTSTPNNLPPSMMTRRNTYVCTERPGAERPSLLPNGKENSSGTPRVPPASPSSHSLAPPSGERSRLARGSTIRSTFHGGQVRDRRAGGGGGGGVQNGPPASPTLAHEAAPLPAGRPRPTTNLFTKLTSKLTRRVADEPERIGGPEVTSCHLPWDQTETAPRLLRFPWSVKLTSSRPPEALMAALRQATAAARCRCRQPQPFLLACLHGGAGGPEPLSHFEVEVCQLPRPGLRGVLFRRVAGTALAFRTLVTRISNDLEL
Description: as §1

PIM1 = target: T13, PIM1 (Homo sapiens, UniProt P11309); conditions: 100 nM; read-out: Average Percent Inhibition
T13 construct: purchased In-house HTRF panel (56 kinases) and PerkinElmer (161-kinase panel)
T13 sequence (P11309 whole entry, species assumed): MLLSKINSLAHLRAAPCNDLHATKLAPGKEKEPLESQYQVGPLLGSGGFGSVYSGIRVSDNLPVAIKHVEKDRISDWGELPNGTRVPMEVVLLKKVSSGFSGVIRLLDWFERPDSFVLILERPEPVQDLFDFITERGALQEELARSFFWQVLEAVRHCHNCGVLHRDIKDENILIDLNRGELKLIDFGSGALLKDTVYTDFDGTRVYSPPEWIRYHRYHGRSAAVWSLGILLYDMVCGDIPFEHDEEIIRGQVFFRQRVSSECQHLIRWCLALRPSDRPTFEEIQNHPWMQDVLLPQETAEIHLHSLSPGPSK
Description: as §1

PAK5 (PAK7) = target: T14, PAK5 (PAK7) (Homo sapiens, UniProt Q9P286); conditions: 100 nM; read-out: Average Percent Inhibition
T14 construct: purchased In-house HTRF panel (56 kinases) and PerkinElmer (161-kinase panel)
Description: as §1

ABL1(Y253F) = target: T15, ABL1(Y253F) (Homo sapiens, UniProt P00519, Y253F); conditions: 100 nM; read-out: Average Percent Inhibition
T15 construct: purchased In-house HTRF panel (56 kinases) and PerkinElmer (161-kinase panel)
Description: as §1

KDR = KDR (Homo sapiens, UniProt P35968); conditions: 100 nM; read-out: Average Percent Inhibition
Description: as §1

DCAMKL2 = target: T16, DCAMKL2 (Homo sapiens, UniProt Q8N568); conditions: 100 nM; read-out: Average Percent Inhibition
T16 construct: purchased In-house HTRF panel (56 kinases) and PerkinElmer (161-kinase panel)
Description: as §1

SRM (SRMS) = target: T17, SRM (SRMS) (Homo sapiens, UniProt Q9H3Y6); conditions: 100 nM; read-out: Average Percent Inhibition
T17 construct: purchased In-house HTRF panel (56 kinases) and PerkinElmer (161-kinase panel)
Description: as §1

c-Raf = target: T18, c-Raf (Homo sapiens, UniProt P04049); conditions: 100 nM; read-out: Average Percent Inhibition
T18 construct: purchased In-house HTRF panel (56 kinases) and PerkinElmer (161-kinase panel)
Description: as §1

GSK3B = target: T19, GSK3B (Homo sapiens, UniProt P49841); conditions: 100 nM; read-out: Average Percent Inhibition
T19 construct: purchased In-house HTRF panel (56 kinases) and PerkinElmer (161-kinase panel)
Description: as §1

CamK1d = target: T20, CamK1d (Homo sapiens, UniProt Q8IU85); conditions: 100 nM; read-out: Average Percent Inhibition
T20 construct: purchased In-house HTRF panel (56 kinases) and PerkinElmer (161-kinase panel)
Description: as §1

PKA = target: T21, PKA (Homo sapiens, UniProt P17612); conditions: 100 nM; read-out: Average Percent Inhibition
T21 construct: purchased In-house HTRF panel (56 kinases) and PerkinElmer (161-kinase panel)
Description: as §1

INSR = target: T22, INSR (Homo sapiens, UniProt P06213); conditions: 100 nM; read-out: Average Percent Inhibition
T22 construct: purchased In-house HTRF panel (56 kinases) and PerkinElmer (161-kinase panel)
Description: as §1

MSK2 = target: T23, MSK2 (Homo sapiens, UniProt O75676); conditions: 100 nM; read-out: Average Percent Inhibition
T23 construct: purchased In-house HTRF panel (56 kinases) and PerkinElmer (161-kinase panel)
Description: as §1

Fer = target: T24, Fer (Homo sapiens, UniProt P16591); conditions: 100 nM; read-out: Average Percent Inhibition
T24 construct: purchased In-house HTRF panel (56 kinases) and PerkinElmer (161-kinase panel)
Description: as §1

CK1g3 (CSNK1G3) = target: T25, CK1g3 (CSNK1G3) (Homo sapiens, UniProt Q9Y6M4); conditions: 100 nM; read-out: Average Percent Inhibition
T25 construct: purchased In-house HTRF panel (56 kinases) and PerkinElmer (161-kinase panel)
Description: as §1

LYN = target: T26, LYN (Homo sapiens, UniProt P07948); conditions: 100 nM; read-out: Average Percent Inhibition
T26 construct: purchased In-house HTRF panel (56 kinases) and PerkinElmer (161-kinase panel)
T26 sequence (P07948 whole entry): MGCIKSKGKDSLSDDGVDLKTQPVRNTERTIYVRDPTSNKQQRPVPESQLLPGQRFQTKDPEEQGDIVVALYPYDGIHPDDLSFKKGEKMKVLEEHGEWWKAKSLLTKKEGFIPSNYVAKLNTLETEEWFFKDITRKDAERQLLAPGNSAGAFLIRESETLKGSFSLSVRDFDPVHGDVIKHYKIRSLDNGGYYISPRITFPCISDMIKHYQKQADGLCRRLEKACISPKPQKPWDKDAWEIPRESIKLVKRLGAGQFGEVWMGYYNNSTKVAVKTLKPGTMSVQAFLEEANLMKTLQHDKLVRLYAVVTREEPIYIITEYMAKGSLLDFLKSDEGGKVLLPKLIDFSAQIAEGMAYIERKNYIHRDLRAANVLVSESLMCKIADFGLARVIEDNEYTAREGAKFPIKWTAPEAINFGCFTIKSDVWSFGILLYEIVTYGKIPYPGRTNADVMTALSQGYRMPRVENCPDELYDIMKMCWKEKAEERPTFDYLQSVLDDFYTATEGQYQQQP
Description: as §1

p38alpha/SAPK2a (T106M) = target: T27, p38alpha/SAPK2a (T106M) (Homo sapiens, UniProt Q16539, T106M); conditions: 100 nM; read-out: Average Percent Inhibition
T27 construct: purchased In-house HTRF panel (56 kinases) and PerkinElmer (161-kinase panel)
T27 sequence (Q16539 whole entry T106M): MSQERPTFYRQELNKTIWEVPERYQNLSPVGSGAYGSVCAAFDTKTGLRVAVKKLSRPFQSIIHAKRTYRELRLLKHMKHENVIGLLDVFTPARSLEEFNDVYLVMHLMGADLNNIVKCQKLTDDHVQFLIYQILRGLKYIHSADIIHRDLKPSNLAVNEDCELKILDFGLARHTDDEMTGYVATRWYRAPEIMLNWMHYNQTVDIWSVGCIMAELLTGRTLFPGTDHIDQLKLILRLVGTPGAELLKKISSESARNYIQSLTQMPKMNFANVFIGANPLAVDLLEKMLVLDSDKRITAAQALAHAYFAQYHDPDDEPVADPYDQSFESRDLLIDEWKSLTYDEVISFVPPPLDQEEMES
Description: as §1

DCAMKL1 = target: T28, DCAMKL1 (Homo sapiens, UniProt O15075); conditions: 100 nM; read-out: Average Percent Inhibition
T28 construct: purchased In-house HTRF panel (56 kinases) and PerkinElmer (161-kinase panel)
T28 sequence (O15075 whole entry): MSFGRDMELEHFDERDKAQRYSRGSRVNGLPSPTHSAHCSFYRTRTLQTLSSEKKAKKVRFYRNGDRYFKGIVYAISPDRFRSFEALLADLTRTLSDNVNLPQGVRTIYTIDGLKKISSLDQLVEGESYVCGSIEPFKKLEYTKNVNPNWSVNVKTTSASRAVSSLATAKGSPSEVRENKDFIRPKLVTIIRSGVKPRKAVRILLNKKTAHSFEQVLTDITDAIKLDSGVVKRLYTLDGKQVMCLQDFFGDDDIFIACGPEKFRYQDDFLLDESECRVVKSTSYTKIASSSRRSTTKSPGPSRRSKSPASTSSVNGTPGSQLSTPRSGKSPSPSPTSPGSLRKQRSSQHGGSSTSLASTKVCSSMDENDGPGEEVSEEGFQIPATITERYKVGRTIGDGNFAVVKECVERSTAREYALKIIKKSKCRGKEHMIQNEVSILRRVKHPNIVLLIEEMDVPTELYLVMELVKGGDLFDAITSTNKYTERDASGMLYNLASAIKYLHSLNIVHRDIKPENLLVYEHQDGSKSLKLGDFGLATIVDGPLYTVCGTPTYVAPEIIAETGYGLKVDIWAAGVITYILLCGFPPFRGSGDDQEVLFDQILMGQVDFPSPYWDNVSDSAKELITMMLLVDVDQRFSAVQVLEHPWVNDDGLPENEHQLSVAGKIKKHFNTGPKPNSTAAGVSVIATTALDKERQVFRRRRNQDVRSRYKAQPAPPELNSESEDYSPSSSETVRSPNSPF
Description: as §1

MET = target: T29, MET (Homo sapiens, UniProt P08581); conditions: 100 nM; read-out: Average Percent Inhibition
T29 construct: purchased In-house HTRF panel (56 kinases) and PerkinElmer (161-kinase panel)
Description: as §1

NEK2 = target: T30, NEK2 (Homo sapiens, UniProt P51955); conditions: 100 nM; read-out: Average Percent Inhibition
T30 construct: purchased In-house HTRF panel (56 kinases) and PerkinElmer (161-kinase panel)
Description: as §1

JAK2 = target: T31, JAK2 (Homo sapiens, UniProt O60674); conditions: 100 nM; read-out: Average Percent Inhibition
T31 construct: purchased In-house HTRF panel (56 kinases) and PerkinElmer (161-kinase panel)
Description: as §1

HIPK2 = target: T32, HIPK2 (Homo sapiens, UniProt Q9H2X6); conditions: 100 nM; read-out: Average Percent Inhibition
T32 construct: purchased In-house HTRF panel (56 kinases) and PerkinElmer (161-kinase panel)
Description: as §1

AXL = target: T33, AXL (Homo sapiens, UniProt P30530); conditions: 100 nM; read-out: Average Percent Inhibition
T33 construct: purchased In-house HTRF panel (56 kinases) and PerkinElmer (161-kinase panel)
T33 sequence (P30530 26-894, species assumed): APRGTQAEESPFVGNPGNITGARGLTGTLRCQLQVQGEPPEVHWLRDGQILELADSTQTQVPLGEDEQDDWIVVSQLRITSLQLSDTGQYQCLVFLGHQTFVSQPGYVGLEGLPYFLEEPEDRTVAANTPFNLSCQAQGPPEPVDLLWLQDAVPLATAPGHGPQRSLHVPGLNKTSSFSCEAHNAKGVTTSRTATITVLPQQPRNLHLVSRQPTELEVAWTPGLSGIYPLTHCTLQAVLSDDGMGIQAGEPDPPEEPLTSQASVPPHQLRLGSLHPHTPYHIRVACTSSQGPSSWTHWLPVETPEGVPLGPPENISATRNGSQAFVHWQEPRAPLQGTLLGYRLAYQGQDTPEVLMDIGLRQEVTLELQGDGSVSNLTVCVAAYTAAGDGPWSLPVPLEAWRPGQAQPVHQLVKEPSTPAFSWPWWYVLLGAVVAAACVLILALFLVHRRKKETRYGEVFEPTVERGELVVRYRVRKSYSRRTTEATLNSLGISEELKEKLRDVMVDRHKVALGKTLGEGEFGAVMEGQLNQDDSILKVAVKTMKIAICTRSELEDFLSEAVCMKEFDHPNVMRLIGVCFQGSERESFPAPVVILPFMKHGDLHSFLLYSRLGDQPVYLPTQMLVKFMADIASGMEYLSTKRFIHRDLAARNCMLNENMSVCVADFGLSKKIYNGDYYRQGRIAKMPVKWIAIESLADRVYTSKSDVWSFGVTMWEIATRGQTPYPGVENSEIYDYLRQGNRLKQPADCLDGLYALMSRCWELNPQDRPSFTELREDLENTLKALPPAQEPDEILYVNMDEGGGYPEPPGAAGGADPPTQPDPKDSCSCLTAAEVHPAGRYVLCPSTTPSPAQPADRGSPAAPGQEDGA
Description: as §1

MST1R = target: T34, MST1R (Homo sapiens, UniProt Q04912); conditions: 100 nM; read-out: Average Percent Inhibition
T34 construct: purchased In-house HTRF panel (56 kinases) and PerkinElmer (161-kinase panel)
Description: as §1

Ca MKII_beta = target: T35, Ca MKII_beta (Homo sapiens, UniProt Q13554); conditions: 100 nM; read-out: Average Percent Inhibition
T35 construct: purchased In-house HTRF panel (56 kinases) and PerkinElmer (161-kinase panel)
Description: as §1

c-TAK1 = target: T36, c-TAK1 (Homo sapiens, UniProt P27448); conditions: 100 nM; read-out: Average Percent Inhibition
T36 construct: purchased In-house HTRF panel (56 kinases) and PerkinElmer (161-kinase panel)
Description: as §1

TRKC (NTRK3) = target: T37, TRKC (NTRK3) (Homo sapiens, UniProt Q16288); conditions: 100 nM; read-out: Average Percent Inhibition
T37 construct: purchased In-house HTRF panel (56 kinases) and PerkinElmer (161-kinase panel)
T37 sequence (Q16288 32-839): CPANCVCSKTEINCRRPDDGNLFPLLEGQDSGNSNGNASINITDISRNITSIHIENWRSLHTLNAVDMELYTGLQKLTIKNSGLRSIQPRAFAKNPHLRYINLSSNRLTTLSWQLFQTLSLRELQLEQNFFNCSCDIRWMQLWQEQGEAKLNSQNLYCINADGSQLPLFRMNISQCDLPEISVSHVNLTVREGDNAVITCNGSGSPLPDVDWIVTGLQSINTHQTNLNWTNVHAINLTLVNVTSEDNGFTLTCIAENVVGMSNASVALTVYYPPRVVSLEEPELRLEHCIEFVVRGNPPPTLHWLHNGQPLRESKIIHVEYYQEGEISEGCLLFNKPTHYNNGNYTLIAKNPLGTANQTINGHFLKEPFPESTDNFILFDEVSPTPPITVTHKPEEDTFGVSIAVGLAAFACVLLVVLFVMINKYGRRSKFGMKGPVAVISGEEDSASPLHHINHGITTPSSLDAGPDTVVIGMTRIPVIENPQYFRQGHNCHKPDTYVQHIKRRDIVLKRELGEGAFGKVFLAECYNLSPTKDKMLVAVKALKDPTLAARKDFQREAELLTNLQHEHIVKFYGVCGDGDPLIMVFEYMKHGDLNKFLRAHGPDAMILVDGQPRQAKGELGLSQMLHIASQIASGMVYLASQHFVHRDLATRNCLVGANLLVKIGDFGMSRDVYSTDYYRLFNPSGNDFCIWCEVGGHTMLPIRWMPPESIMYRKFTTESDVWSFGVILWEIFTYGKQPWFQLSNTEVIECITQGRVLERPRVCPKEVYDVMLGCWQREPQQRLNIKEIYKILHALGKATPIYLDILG
Description: as §1

IGF1R = IGF1R (Homo sapiens, UniProt P08069); conditions: 100 nM; read-out: Average Percent Inhibition
Description: as §1

SGK3 = SGK3 (Homo sapiens, UniProt Q96BR1); conditions: 100 nM; read-out: Average Percent Inhibition
Description: as §1

PKD3 = target: T38, PKD3 (Homo sapiens, UniProt O94806); conditions: 100 nM; read-out: Average Percent Inhibition
T38 construct: purchased In-house HTRF panel (56 kinases) and PerkinElmer (161-kinase panel)
Description: as §1

TYRO3 = target: T39, TYRO3 (Homo sapiens, UniProt Q06418); conditions: 100 nM; read-out: Average Percent Inhibition
T39 construct: purchased In-house HTRF panel (56 kinases) and PerkinElmer (161-kinase panel)
Description: as §1

`CCN1C(=O)N(c2c(F)c(OC)cc(OC)c2F)Cc2cnc3[nH]c(CN4CCOCC4)cc3c21` [INCB054828, pemigatinib] was tested, and the “Average Percent Inhibition” value (CAMK2) was 2%, the inhibition at 0.1 µM (AurB) was 11% and the inhibition at 0.1 µM (DYRK1B) was 7%. It also gave an inhibition at 0.1 µM (EPHA3) of 0%, an inhibition at 0.1 µM (FES) of -11% and an inhibition at 0.1 µM (PAK2) of 0%. It also gave an inhibition at 0.1 µM (PKC-delta) of 9%, an inhibition at 0.1 µM (KIT) of 4% and an inhibition at 0.1 µM (MARK2) of 5%. The inhibition at 0.1 µM (PKCb2) was 0%, the inhibition at 0.1 µM (KIT[T670I]) was -2% and the inhibition at 0.1 µM (PRKX) was 0%. It also gave an inhibition at 0.1 µM (MARK4) of -4%, an inhibition at 0.1 µM (PIM1) of -6% and an inhibition at 0.1 µM (PAK5 (PAK7)) of 6%. It also gave an inhibition at 0.1 µM (ABL1(Y253F)) of 2%, an inhibition at 0.1 µM (KDR) of 45% and an inhibition at 0.1 µM (DCAMKL2) of 3%. For the same compound, the inhibition at 0.1 µM (SRM (SRMS)) was 1%, the inhibition at 0.1 µM (c-Raf) was 3% and the inhibition at 0.1 µM (GSK3B) was -1%. It also gave an inhibition at 0.1 µM (CamK1d) of 14%, an inhibition at 0.1 µM (PKA) of 1% and an inhibition at 0.1 µM (INSR) of 1%. It also gave an inhibition at 0.1 µM (MSK2) of -7%, an inhibition at 0.1 µM (Fer) of 17% and an inhibition at 0.1 µM (CK1g3 (CSNK1G3)) of 0%. For the same compound, the inhibition at 0.1 µM (LYN) was 14%, the inhibition at 0.1 µM (p38alpha/SAPK2a (T106M)) was -3% and the inhibition at 0.1 µM (DCAMKL1) was -4%. The inhibition at 0.1 µM (MET) was -2%, the inhibition at 0.1 µM (NEK2) was -4% and the inhibition at 0.1 µM (JAK2) was 8%. For the same compound, the inhibition at 0.1 µM (HIPK2) was -1%, the inhibition at 0.1 µM (AXL) was -8% and the inhibition at 0.1 µM (MST1R) was 1%. For the same compound, the inhibition at 0.1 µM (Ca MKII_beta) was -9%, the inhibition at 0.1 µM (c-TAK1) was 2% and the inhibition at 0.1 µM (TRKC (NTRK3)) was 3%. It also gave an inhibition at 0.1 µM (IGF1R) of 1%, an inhibition at 0.1 µM (SGK3) of 13% and an inhibition at 0.1 µM (PKD3) of 0%. The inhibition at 0.1 µM (TYRO3) was 1%.
